Numbers after ± are expanded uncertainties.
Experiments:
[1] = mn = molality of the nth substance listed, in mol/kg; conditions: 85 kPa, Liquid; for viscosity: Falling or rolling sphere viscometry; for speed of sound: Frequency=3 MHz, Single path-length method; for mass density: Vibrating tube method
[2] = refractive index (Na D-line) (dimensionless); mn = molality of the nth substance listed, in mol/kg; conditions: 85 kPa, Liquid, Standard Abbe refractometry

C[C@H](N)C(=O)[O-].C[N+](C)(C)CCO [2-hydroxy-N,N,N-trimethylethanaminium L-alaninate] + O
Conditions	mass density, [1] [kg/m3]	refractive index, [2]	speed of sound, [1] [m/s]	viscosity, [1] [mPa·s]
288.15 K, m1 = 0.0108	999.398 ± 0.32	1.3338 ± 0.0005	1468 ± 1.2	1.143 ± 0.015
288.15 K, m1 = 0.0204	999.663 ± 0.32	1.334 ± 0.0005	1469.3 ± 1.2	1.147 ± 0.015
288.15 K, m1 = 0.03	999.914 ± 0.32	1.3342 ± 0.0005	1470.7 ± 1.2	1.151 ± 0.015
288.15 K, m1 = 0.0401	1000.17 ± 0.32	1.3345 ± 0.0005	1472.1 ± 1.2	1.155 ± 0.015
288.15 K, m1 = 0.0509	1000.44 ± 0.32	1.3349 ± 0.0005	1473.6 ± 1.2	1.16 ± 0.015
288.15 K, m1 = 0.0583	1000.62 ± 0.32	1.3351 ± 0.0005	1474.6 ± 1.2	1.163 ± 0.015
298.15 K, m1 = 0.0108	997.345 ± 0.39	1.3331 ± 0.0005	1498.4 ± 1.9	0.897 ± 0.017
298.15 K, m1 = 0.0204	997.608 ± 0.32	1.3333 ± 0.0005	1499.7 ± 1.2	0.9 ± 0.014
298.15 K, m1 = 0.03	997.858 ± 0.32	1.3335 ± 0.0005	1501 ± 1.2	0.903 ± 0.014
298.15 K, m1 = 0.0401	998.115 ± 0.32	1.3337 ± 0.0005	1502.4 ± 1.2	0.906 ± 0.014
298.15 K, m1 = 0.0509	998.382 ± 0.31	1.3341 ± 0.0005	1503.9 ± 1.1	0.91 ± 0.014
298.15 K, m1 = 0.0583	998.553 ± 0.31	1.3343 ± 0.0005	1504.9 ± 1.3	0.912 ± 0.021
308.15 K, m1 = 0.0108	994.326 ± 0.38	1.3319 ± 0.0005	1521.6 ± 1.9	0.732 ± 0.014
308.15 K, m1 = 0.0204	994.588 ± 0.32	1.3321 ± 0.0005	1522.9 ± 1.2	0.735 ± 0.013
308.15 K, m1 = 0.03	994.839 ± 0.32	1.3323 ± 0.0005	1524.2 ± 1.2	0.737 ± 0.013
308.15 K, m1 = 0.0401	995.097 ± 0.32	1.3326 ± 0.0005	1525.6 ± 1.2	0.74 ± 0.013
308.15 K, m1 = 0.0509	995.362 ± 0.32	1.333 ± 0.0005	1527 ± 1.1	0.743 ± 0.013
308.15 K, m1 = 0.0583	995.534 ± 0.31	1.3333 ± 0.0005	1528 ± 1.3	0.745 ± 0.015
318.15 K, m1 = 0.0108	990.514 ± 0.32	1.3304 ± 0.0005	1537.5 ± 1.1	0.604 ± 0.013
318.15 K, m1 = 0.0204	990.779 ± 0.32	1.3306 ± 0.0005	1538.8 ± 1.1	0.607 ± 0.013
318.15 K, m1 = 0.03	991.029 ± 0.32	1.3309 ± 0.0005	1540 ± 1.1	0.609 ± 0.013
318.15 K, m1 = 0.0401	991.289 ± 0.32	1.3312 ± 0.0005	1541.3 ± 1.1	0.611 ± 0.013
318.15 K, m1 = 0.0509	991.561 ± 0.32	1.3315 ± 0.0005	1542.8 ± 1.1	0.613 ± 0.013
318.15 K, m1 = 0.0583	991.728 ± 0.32	1.3318 ± 0.0005	1543.7 ± 1.1	0.615 ± 0.013
